Results reported in US20200289474A1, “METHODS OF TREATING PAIN WITH A THIAZOLINE ANTI-HYPERALGESIC” (priority 2019, published 2020).
Like-named read-outs stand apart in the source and are kept apart here.

Tests used:
[1] = biological target: T1, OATP1B1 (Homo sapiens, UniProt Q9Y6L6); assay: transporter inhibition, HEK293 cells, probe accumulation; format: in vitro ADME
T1 construct: expressed in transfected cells; host or cells: HEK293 cells
T1 sequence (Q9Y6L6 1-691): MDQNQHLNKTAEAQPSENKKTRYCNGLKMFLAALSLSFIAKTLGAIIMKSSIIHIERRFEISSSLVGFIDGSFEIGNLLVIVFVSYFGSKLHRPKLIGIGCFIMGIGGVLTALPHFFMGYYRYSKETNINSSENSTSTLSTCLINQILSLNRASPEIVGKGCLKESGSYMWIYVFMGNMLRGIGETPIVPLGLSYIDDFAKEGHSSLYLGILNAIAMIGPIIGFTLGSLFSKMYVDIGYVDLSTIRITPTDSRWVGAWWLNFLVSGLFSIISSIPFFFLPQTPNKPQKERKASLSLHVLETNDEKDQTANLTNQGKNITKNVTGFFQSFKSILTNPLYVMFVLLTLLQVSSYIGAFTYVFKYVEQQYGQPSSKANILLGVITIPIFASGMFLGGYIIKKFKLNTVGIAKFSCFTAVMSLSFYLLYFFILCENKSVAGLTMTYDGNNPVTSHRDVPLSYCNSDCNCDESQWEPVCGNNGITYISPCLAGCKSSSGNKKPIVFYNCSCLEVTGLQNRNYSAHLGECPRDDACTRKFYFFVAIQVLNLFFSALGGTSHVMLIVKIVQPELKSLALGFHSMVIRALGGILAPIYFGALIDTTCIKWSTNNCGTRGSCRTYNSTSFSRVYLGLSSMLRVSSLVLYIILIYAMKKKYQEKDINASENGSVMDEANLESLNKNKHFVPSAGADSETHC

[2] = test system: Caco-2 cells; assay: cytotoxicity by lactate dehydrogenase (LDH) release; format: cell-based
[3] = test system: HEK293 cells; assay: as above; format: cell-based
[4] = dog 28-day repeat dose PO study; format: in vivo; conditions: for Cmax: dog 28 Day PO
Protocol: Beagle dogs (4/sex/group plus 2/sex/group for control and high dose animals for recovery) were administered daily doses of 0, 100, 250 or 400 mg/kg/day of Compound 1 in 0.5% HPMC. […] Dogs in Group 1 (Vehicle Control) were bled once at approximately 2-4 hours post-dose on those days.

CC1(C)SC(Nc2ccccc2O)=N[C@@H]1C(=O)O.Cl [Compound 1, (R)-2-(2-hydroxyphenylamino)-5,5-dimethyl-4,5-dihydrothiazole-4-carboxylic acid mono-hydrochloride]
inhibition [1]: does not inhibit
cytotoxicity (LDH release) [2]: less than 25%
cytotoxicity (LDH release) [3]: less than 25%
Tmax at 28 days ([4]; both sexes, beagle, dog, in vivo, po, dog 28-day PO, all animals, read-out: median tmax): 1 h
Tmax at 28 days ([4]; both sexes, beagle, dog, in vivo, po, dog 28-day study (summary), read-out: Tmax): ≤ 1 h
Cmax at 28 days ([4]; both sexes, beagle, in vivo, po, dog 28-day pivotal study, at some doses): > 100 µg/mL
mean t1/2 ([4]; both, beagle, dog, in vivo, po): 3.5 h
Cmax ([4]; Day 1, 100 mg/kg, F): 69.3 µg/mL
Cmax ([4]; Day 1, 100 mg/kg, M): 49.9 µg/mL
Cmax ([4]; Day 1, 250 mg/kg, F): 101 µg/mL
Cmax ([4]; Day 1, 250 mg/kg, M): 104 µg/mL
Cmax ([4]; Day 1, 400 mg/kg, F): 129 µg/mL
Cmax ([4]; Day 1, 400 mg/kg, M): 128 µg/mL
Cmax ([4]; Day 15, 100 mg/kg, F): 53.0 µg/mL
Cmax ([4]; Day 15, 100 mg/kg, M): 50.4 µg/mL
Cmax ([4]; Day 15, 250 mg/kg, F): 94.6 µg/mL
Cmax ([4]; Day 15, 250 mg/kg, M): 88.0 µg/mL
Cmax ([4]; Day 15, 400 mg/kg, F): 123 µg/mL
Cmax ([4]; Day 15, 400 mg/kg, M): 112 µg/mL
Cmax ([4]; Day 28, 100 mg/kg, F): 60.8 µg/mL
Cmax ([4]; Day 28, 100 mg/kg, M): 45.0 µg/mL
Cmax ([4]; Day 28, 250 mg/kg, F): 89.5 µg/mL
Cmax ([4]; Day 28, 250 mg/kg, M): 105 µg/mL
Cmax ([4]; Day 28, 400 mg/kg, F): 131 µg/mL
Cmax ([4]; Day 28, 400 mg/kg, M): 125 µg/mL
